{"source": "patent US20230129595A1", "about": "“PARENTERAL NUTRITION SOLUTION COMPRISING A SELENIUM SOURCE” (BAXTER INTERNATIONAL INC., priority 2019, published 2023)", "key": {"[1]": {"assay": "Selenium stability in sterilized multi trace element solutions, recovery of initial concentration (Example 4, FIGS. 1-3)", "settings": "for Selenium concentration during storage: FIGS. 1-3", "from_the_text": "FIGS. 1-3: The recovery of the initial concentration of the different trace elements in percent (%) is indicated on the Y-axis of the Figures. The analyzed timepoints are is indicated on the X-axis. The timepoint −0.5 corresponds to the results of TE dosage on unsterilized sample at T0. Timepoint 0 corresponds to the results of TE dosage right after sterilization. Timepoint 0.5 correspond to the results of TE dosage after an accelerated stability stress cycle (i.e. three repetition of alternatively 5° C./50° C., 48 h/48 h). Timepoints 1, 3 and 6 correspond to the results of TE dosage after 1 month, 3 months and 6 months storage at 40° C./25% RH.\nFor the three tested solutions containing different forms of selenium, the selenium is mixed with other TE (Zn, Cu, Mn, F, I, Mo, Cr, Fe), which were introduced as chloride salts. The solutions were acidified to pH 2.2 using malic acid and underwent terminal heat sterilization prior to storage."}, "[2]": {"assay": "Storage stability of selenium sources in a separate chamber (Example 3)", "settings": "separated chamber, alone or together with other trace elements; after 6 months storage at 40° C./25% RH", "from_the_text": "Selenate was introduced with other trace elements into a separate chamber from macronutrients."}, "[3]": {"settings": "Pediaven, trace elements in the glucose chamber; announced July 2014; cited from earlier work"}, "[4]": {"settings": "cited from earlier work"}, "[5]": {"settings": "mixed with other TE, pH 2.2 with malic acid, terminal heat sterilization, storage at 40° C./25% RH, selenate and selenomethionine compared with selenite"}, "[6]": {"settings": "mixed with other TE, pH 2.2 with malic acid, terminal heat sterilization"}}, "data": [{"smiles": "O=[Se](O)O", "note": "[selenite, reference compound]", "values": [{"measurement": "Stability of selenium after storage for three months", "setting": "[1]; [5]", "value": "lack of stability"}]}, {"smiles": "O=[Se](=O)(O)O", "note": "[sodium selenate]", "values": [{"measurement": "Stability in solution", "setting": "[2]", "value": "remained stable"}, {"measurement": "Selenium concentration during storage", "setting": "[1]; [6]", "value": "remained stable"}, {"measurement": "Stability of selenium after storage for three months", "setting": "[1]; [5]", "value": "better stability"}]}, {"smiles": "C[Se]CC[C@H](N)C(=O)O", "note": "[selenomethionine]", "values": [{"measurement": "Selenium concentration during storage", "setting": "[1]; [6]", "value": "remained stable"}, {"measurement": "Stability of selenium after storage for three months", "setting": "[1]; pH 2.2", "value": "better stability"}]}, {"smiles": "N[C@@H](C[SeH])C(=O)O", "note": "[selenocysteine]", "values": [{"measurement": "Stability in solution", "setting": "[2]", "value": "remained stable"}]}, {"smiles": "O=[Se]=O", "note": "[selenium dioxide]", "values": [{"measurement": "Presence of selenium in the finished product", "setting": "[3]", "value": "absent in the finished product"}]}, {"smiles": "[Na+].[Na+].[O]=[Mo](=[O])([O-])[O-]", "note": "[Na2MoO4, 2H2O, sodium molybdate]", "values": [{"measurement": "Chemical form; Solubility in water", "setting": "[4]", "value": "<840", "unit": "mg/mL"}]}]}
